Like-named read-outs stand apart in the source and are kept apart here. Where a SMILES comes first, the peptide text is derived from it. [ ]: non-standard residue; d: D form. The star is where a group is joined. Dolaproine = CO[C@@H]([C@@H]1CCCN1)[C@@H](C)C(=O)O; Dil = CC[C@H](C)[C@H](NC)[C@@H](CC(=O)O)OC; X1 = C[C@@H](N*)[C@@H](O)c1ccccc1; NMeV = CN[C@H](C(=O)O)C(C)C
How the values were obtained:
8392B cell line [1] = experiment: Two hour toxicity: inhibition of DNA synthesis activity, nontarget cell line; format: cell-based
NCI 60 cell line panel = experiment: NCI DTP 60 cell line screen assay; details: for Cytotoxicity: ability to actually kill tumor cells versus only inhibiting growth
From the text: An ADC is engulfed by a tumor cell, transported to the endosomes (pH < 6.0) and then into the lysozomes (pH < 4). […] 4) Cancer cells can become resistant to various toxins and drugs through the development of what is termed multi-drug resistance. This process is known to occur through several different mechanisms.

MV522 cell line = experiment: cells; format: cell-based
8392B cell line [2] = experiment: cells; format: cell-based; details: read-out: Mean IC50 value (nM) ± SD, N=3 unless otherwise indicated, 8392B Nontarget Cell Line, 48 hr exposure, 8392B nontarget cell line, mean ± SD, N=3 unless otherwise indicated
[3] = read-out: Mean IC50 value (nM) ± SD, N=3 unless otherwise indicated, 8392B Nontarget Cell Line, 2 hr exposure, 8392B nontarget cell line, 2 hr exposure, mean ± SD, N=3 unless otherwise indicated
[4] = read-out: Mean IC50 value (nM) ± SD, N=3 unless otherwise indicated, MV522 Target Cell Line, 2 hr exposure, MV522 target cell line, 2 hr exposure, mean ± SD, N=3 unless otherwise indicated

| SMILES | IC50 (8392B cell line [1]; [3]) | IC50 (8392B cell line [2]) | other results |
| --- | --- | --- | --- |
| CC1=C(CSc2nc(O)c3nccnc3n2)C2=C(C)C3(CC3)[C@@](C)(O)C(=O)C2=C1 [compound 153] | > 90000 nM | – | – |
| CC1=C2C(=CC(C)(C)C2OC(=O)c2ccc(S(=O)(=O)F)cc2)C(=O)C(C)(O)C12CC2 (stereo not shown) [compound 222] | 9300 nM | – | – |
| CC[C@H](C)[C@@H]([C@@H](CC(=O)N1CCC[C@H]1[C@H](OC)[C@@H](C)C(=O)N[C@H](C)[C@@H](O)c1ccccc1)OC)N(C)C(=O)[C@@H](NC(=O)[C@@H](NC)C(C)C)C(C)C [MMAE, N-methylvaline-valine-dolaisoleuine-dolaproine-norephedrine, reference compound] (H-[NMeV]V[Dil][Dolaproine]-X1) | – | – | MDR Activity (NCI 60 cell line panel): No; MDR Activity (NCI 60 cell line panel; listed as MMA): not MDR active; Cytotoxicity (NCI 60 cell line panel): No; Cytotoxicity (NCI 60 cell line panel; listed as MMA): not cytotoxic |
| COc1cc2cc(c1Cl)N(C)C(=O)C[C@H](OC(=O)[C@H](C)N(C)C(=O)CCS)[C@]1(C)O[C@H]1[C@H](C)[C@@H]1C[C@@](O)(NC(=O)O1)[C@H](OC)/C=C/C=C(\C)C2 [DM1, reference compound] | – | – | Cytotoxicity (NCI 60 cell line panel): not cytotoxic and No |
| CC(=O)O[C@@H]1C2=C(C)C3(CC3)[C@@](C)(O)C(=O)C2=C[C@@]1(C)CO [analog 371, (2'S,3'R,6'R)-6'-hydroxy-2'-(hydroxymethyl)-2',4',6'-trimethyl-7'-oxo-2',3',6',7'-tetrahydrospiro[cyclopropane-1,5'-inden]-3'-yl acetate] | – | – | Cytotoxicity (NCI 60 cell line panel): cytotoxic |
| CC1=C(CO)C2=C(C)C3(CC3)[C@@](C)(O)C(=O)C2=C1 [analog 002, (6'R)-6'-hydroxy-3'-(hydroxymethyl)-2',4',6'-trimethylspiro[cyclopropane-1,5'-inden]-7'(6'H)-one] | – | – | IC50 (MV522 cell line; MV522, 2 h, read-out: IC50 MV522): 110 nM; IC50 (8392B cell line [1]; 2 hour exposure, nontarget cell line, read-out: IC50 8392B): > 26000 nM |
| CC1=C2C(=C[C@@](C)(C=O)[C@@H]2O)C(=O)[C@](C)(O)C12CC2 [compound 383] | – | – | MDR Activity (NCI 60 cell line panel): Yes; Cytotoxicity (NCI 60 cell line panel): Yes |
| CC1=C(CN=[N+]=[N-])C2=C(C)C3(CC3)[C@@](C)(O)C(=O)C2=C1 [compound 193] | – | > 11000 nM | – |
| CC1=C(CNS(C)(=O)=O)C2=C(C)C3(CC3)[C@@](C)(O)C(=O)C2=C1 [compound 271] | > 93000 nM | > 9300 nM | – |
| CC1=C2C(=C[C@@](C)(C=O)[C@@H]2O)C(=O)[C@](C)(O)C12CC2 [analog 383, (2'R,3'R,6'R)-3',6'-dihydroxy-2',4',6'-trimethyl-7'-oxo-2',3',6',7'-tetrahydrospiro[cyclopropane-1,5'-indene]-2'-carbaldehyde] | – | – | Cytotoxicity (NCI 60 cell line panel): cytotoxic |
| CC(=O)ON(C(C)=O)c1ccc(C(=O)OC[C@]2(C)C=C3C(=O)[C@](C)(O)C4(CC4)C(C)=C3C2O)cc1 (stereo partly shown) [compound 136] | > 6200 nM | – | – |
| CC1=C(COc2ccccc2)C2=C(C)C3(CC3)[C@@](C)(O)C(=O)C2=C1 [compound 199] | > 93000 nM | > 9300 nM | – |
| CC1=C2C(=C[C@@](C)(COS(C)(=O)=O)[C@@H]2O)C(=O)[C@](C)(O)C12CC2 [compound 362] | – | – | MDR Activity (NCI 60 cell line panel): Yes; Cytotoxicity (NCI 60 cell line panel): Yes |
| CC(=O)ON(C(C)=O)C(=O)OCCCC1=C(C)C=C2C(=O)[C@](C)(O)C3(CC3)C(C)=C21 [compound 240] | > 24000 nM | – | – |
| CC1=C(CCCOC(=O)[C@@H]2CCCN2)C2=C(C)C3(CC3)[C@@](C)(O)C(=O)C2=C1 [compound 196] | – | > 9200 nM | – |
| CC(=O)OC[C@]1(C)C=C2C(=O)[C@](C)(O)C3(CC3)C(C)=C2[C@H]1OC(=O)N(C)CCN(C)C(=O)OC(C)(C)C [compound 334] | – | – | MDR Activity (NCI 60 cell line panel): Yes; Cytotoxicity (NCI 60 cell line panel): Yes |
| CC1=C(CN)C2=C(C)C3(CC3)[C@@](C)(O)C(=O)C2=C1 [compound 270] | > 84000 nM | – | – |
| CC1=C(CSc2nnnn2-c2ccc(O)cc2)C2=C(C)C3(CC3)[C@@](C)(O)C(=O)C2=C1 [compound 154] | > 70000 nM | – | IC50 (MV522 cell line; [4]): > 70000 nM |
| CC1=C([C@@H]2CCOS(=O)(=O)N2)C2=C(C)C3(CC3)[C@@](C)(O)C(=O)C2=C1 [compound 259] | > 85000 nM | – | – |
| CONC(=O)NCC1=C(C)C=C2C(=O)[C@](C)(O)C3(CC3)C(C)=C21 [compound 278] | > 94000 nM | > 9400 nM | – |
| CC1=C(CCCNC(=O)OCC2=C(C(=O)O)N3C(=O)[C@H](NC(=O)Cc4cccs4)[C@@H]3S(=O)(=O)C2)C2=C(C)C3(CC3)[C@@](C)(O)C(=O)C2=C1 [compound 274] | > 46000 nM | > 4500 nM | – |
| CC1=C(Cn2cc(F)c(=O)[nH]c2=O)C2=C(C)C3(CC3)[C@@](C)(O)C(=O)C2=C1 [compound 286] | – | > 8800 nM | – |
| CC1=C(CNC(=O)C(N)CC(C)C)C2=C(C)C3(CC3)[C@@](C)(O)C(=O)C2=C1 (stereo partly shown) [compound 276] | > 61000 nM | > 6100 nM | – |
| COc1ccc(NS(=O)(=O)OCC2=C(C)C=C3C(=O)[C@](C)(O)C4(CC4)C(C)=C32)cc1 [compound 269] | – | > 7000 nM | – |

| SMILES | IC50 (8392B cell line [1]; [3]) | IC50 (8392B cell line [2]) | other results |
| --- | --- | --- | --- |
| CC1=CC2=C(C)C3(CC3)[C@@](C)(O)/C(=N/O)C2=C1 [analog 224, (R,E)-6'-hydroxy-2',4',6'-trimethylspiro[cyclopropane-1,5 '-inden]-7'(6'H)-one oxime] | – | – | toxicity (MV522 cell line; target and nontarget cell line, in words): minimal toxicity |
| CON(CC1=C(C)C=C2C(=O)[C@](C)(O)C3(CC3)C(C)=C21)C(=O)CN [compound 267] | > 90000 nM | – | – |
| CC1=C(CCCNC(=O)C(F)(F)F)C2=C(C)C3(CC3)[C@@](C)(O)C(=O)C2=C1 [compound 268] | – | > 8000 nM | – |
| COC(=O)C[S+]([O-])CC1=C(C)C=C2C(=O)[C@](C)(O)C3(CC3)C(C)=C21 (stereo partly shown) [compound 263] | 124000 ± 18000 nM | – | – |
| CC1=C(CNO)C2=C(C)C3(CC3)[C@@](C)(O)C(=O)C2=C1 [compound 394] | – | – | MDR Activity (NCI 60 cell line panel): Yes; Cytotoxicity (NCI 60 cell line panel): Yes |
| CC1=C(COCCBr)C2=C(C)C3(CC3)[C@@](C)(O)C(=O)C2=C1 [compound 020] | 25000 ± 3100 nM | – | IC50 (MV522 cell line; [4]): 530 ± 140 nM |
| CC1=C(COC(=O)CCCCCN2C(=O)C=CC2=O)C2=C(C)C3(CC3)[C@@](C)(O)C(=O)C2=C1 [compound 217] | – | > 7000 nM | – |
| CC(=O)OC[C@]1(C)C=C2C(=O)[C@](C)(O)C3(CC3)C(C)=C2[C@H]1OC(=O)N(C)CCN(C)C(=O)OC(C)(C)C [analog 334, ((2'S,3'R,6'R)-3'-(((2-((tert-butoxycarbonyl)(methyl)amino)ethyl)(methyl)carbamoyl)oxy)-6'-hydroxy-2',4',6'-trimethyl-7'-oxo-2',3',6',7'-tetrahydrospiro[cyclopropane-1,5' - inden]-2' - yl)methylacetate] | – | – | Cytotoxicity (NCI 60 cell line panel): cytotoxic |
| CC1=C(CCCOC(=O)C(N)CC(C)C)C2=C(C)C3(CC3)[C@@](C)(O)C(=O)C2=C1 (stereo partly shown) [compound 176] | – | – | MDR Activity (NCI 60 cell line panel): Yes; Cytotoxicity (NCI 60 cell line panel): Yes |
| CC1=C(CSc2nc3ccccc3s2)C2=C(C)C3(CC3)[C@@](C)(O)C(=O)C2=C1 [compound 147] | > 76000 nM | – | IC50 (MV522 cell line; [4]): > 76000 nM |
| CC1=C(COc2ccc([N+](=O)[O-])cc2)C2=C(C)C3(CC3)[C@@](C)(O)C(=O)C2=C1 [compound 198] | > 8200 nM | > 82000 nM | – |
| CC1=C(CCCNC(=O)N2CCC(N3CCCCC3)CC2)C2=C(C)C3(CC3)[C@@](C)(O)C(=O)C2=C1 [compound 260] | > 64000 nM | – | – |
| CC1=C(CNS(N)(=O)=O)C2=CC3(CC3)C(C)(O)C(=O)C2=C1 (stereo not shown) [compound 283] | – | > 9300 nM | – |
| CCCCCCCC/C=C/CCCCCCCC(=O)OCCCC1=C(C)C=C2C(=O)[C@](C)(O)C3(CC3)C(C)=C21 [compound 227] | > 57000 nM | – | IC50 (MV522 cell line; [4]): > 57000 nM |
| CC1=C(CNO)C2=C(C)C3(CC3)[C@@](C)(O)C(=O)C2=C1 [analog 394, (R)-6'-hydroxy-3'-((hydroxyamino)methyl)-2',4',6'-trimethylspiro[cyclopropane-1,5'-inden]-7'(6'H)-one] | – | – | Cytotoxicity (NCI 60 cell line panel): cytotoxic |
| CC1=C(CCCOC(=O)[C@@H]2CCCN2C(=O)[C@@H](N)CO)C2=C(C)C3(CC3)[C@@](C)(O)C(=O)C2=C1 [compound 203] | – | > 5500 nM | – |
| CC(=O)O[C@@H]1C2=C(C)C3(CC3)[C@@](C)(O)C(=O)C2=C[C@@]1(C)CO [compound 371] | – | – | MDR Activity (NCI 60 cell line panel): Yes; Cytotoxicity (NCI 60 cell line panel): Yes |
| CC1=C(Cn2c(=O)cc[nH]c2=O)C2=C(C)C3(CC3)[C@@](C)(O)C(=O)C2=C1 [compound 284] | – | > 8800 nM | – |
| CC1=C(CNC(=O)C2CCCN2)C2=C(C)C3(CC3)[C@@](C)(O)C(=O)C2=C1 (stereo partly shown) [compound 275] | > 62000 nM | > 6200 nM | – |
| CC1=C(CCCOC(=O)CNC(=O)OC(C)(C)C)C2=C(C)C3(CC3)[C@@](C)(O)C(=O)C2=C1 [compound 298] | – | – | IC50 (MV522 cell line; [4]): > 7000 nM |
| CC1=C(CCCOC(=O)[C@@H]2CCCN2C(=O)[C@H](CO)NC(=O)[C@@H](N)CO)C2=C(C)C3(CC3)[C@@](C)(O)C(=O)C2=C1 [compound 209] | > 90000 nM | – | – |
| CC1=C2C(=C[C@@](C)(COS(C)(=O)=O)[C@@H]2O)C(=O)[C@](C)(O)C12CC2 [analog 362, ((2'S,3'R,6'R)-3',6'-dihydroxy-2',4',6'-trimethyl-7'-oxo-2',3',6',7'-tetrahydrospiro[cyclopropane-1,5'-inden]-2'-yl)methyl methanesulfonate] | – | – | Cytotoxicity (NCI 60 cell line panel): cytotoxic |
| CC1=C(CCCNC(=O)[C@@H]2CCCN2)C2=C(C)C3(CC3)[C@@](C)(O)C(=O)C2=C1 [compound 202] | > 62000 nM | > 6200 nM | – |
| C/C(=C\c1csc(C)n1)[C@@H]1C[C@@H]2O[C@@H]2CCC[C@H](C)[C@H](O)[C@@H](C)C(=O)C(C)(C)[C@@H](O)CC(=O)O1 [Epothilone A, reference compound] | – | – | Cytotoxicity (NCI 60 cell line panel): not cytotoxic and No |
